Measured values as given in US20170232083A1, “METHODS OF DIAGNOSIS AND TREATMENT OF CELIAC DISEASE IN CHILDREN” (priority 2014, published 2017).

Test system: PBMC (polyclonal gluten-specific T cells) of paediatric and adult CD patients
Assay: IFN-γ ELISpot of PBMC after 3 day oral wheat challenge (SFU, % of maximal peptide response, dominance scores, EC50; Examples 5-6)
Format: cell-based, human
Details: for Cross-reactive T cell response: following wheat challenge; for IFN-γ ELISpot response: after oral wheat challenge
[1] = patient G, 11-17 yrs, cut-off 10 SFU
[2] = patient H, 11-17 yrs, cut-off 10 SFU
[3] = patient ID not given, 11-17 yrs, cut-off 10 SFU
[4] = patient P, 11-17 yrs, cut-off 21.6 SFU
[5] = patient Q, 11-17 yrs, cut-off 10 SFU
[6] = patient U, H, 11-17 yrs, cut-off 10 SFU
[7] = patient V, 6-10 yrs, cut-off 10 SFU
[8] = patient Y, 6-10 yrs, cut-off 10 SFU
[9] = patient eleven, 6-10 yrs, cut-off 10 SFU
[10] = patient four, 3-5yrs, cut-off 10 SFU
[11] = patient seven, 6-10 yrs, cut-off 10.5 SFU
[12] = patient ten, 3-5yrs, cut-off 10 SFU
[13] = patient three, 6-10 yrs, cut-off 10.5 SFU
[14] = patient two, 3-5yrs, cut-off 10 SFU

FPQTEQPEQPFPQP
Cross-reactive T cell response (subject A, 11-17yrs): 1 SFU
Cross-reactive T cell response (subject D, 11-17yrs): 0 SFU
Cross-reactive T cell response (subject E, 11-17yrs): 3 SFU
Cross-reactive T cell response (subject F, 11-17yrs): 2 SFU
Cross-reactive T cell response (subject G, 11-17yrs): 2 SFU
Cross-reactive T cell response (subject H): 1 SFU
Cross-reactive T cell response (subject I (3-5yrs/6-10yrs part)): 0 SFU
Significant response as a percentage of maximal peptide SFU (subject J): ′′ (21-40% = ′′)
Cross-reactive T cell response (subject J (3-5yrs/6-10yrs part)): 67 SFU
Significant response as a percentage of maximal peptide SFU (subject K): ′′ (21-40% = ′′)
Cross-reactive T cell response (subject K (3-5yrs/6-10yrs part)): 19 SFU
Cross-reactive T cell response (subject P, 11-17yrs): 3 SFU
Significant response as a percentage of maximal peptide SFU (subject Q, 11-17yrs): ′ (11-20% = ′)
Cross-reactive T cell response (subject Q, 11-17yrs): 10 SFU
Cross-reactive T cell response (subject T, 11-17yrs): 7 SFU
Cross-reactive T cell response (subject U, 11-17yrs): 5 SFU
Cross-reactive T cell response (subject V (3-5yrs/6-10yrs part)): 6 SFU
Cross-reactive T cell response (subject W (3-5yrs/6-10yrs part)): 5 SFU
Cross-reactive T cell response (subject Y (3-5yrs/6-10yrs part)): 3 SFU
Cross-reactive T cell response (subject five (3-5yrs/6-10yrs part)): 5 SFU
Cross-reactive T cell response (subject nine, 11-17yrs): 0 SFU
Cross-reactive T cell response (subject seven (3-5yrs/6-10yrs part)): 5 SFU
Cross-reactive T cell response (subject six (3-5yrs/6-10yrs part)): 4 SFU
Significant response as a percentage of maximal peptide SFU (subject ten): + (>70% = +)
Cross-reactive T cell response (subject ten (3-5yrs/6-10yrs part)): 13 SFU
Cross-reactive T cell response (subject two (3-5yrs/6-10yrs part)): 3 SFU

GIIQPQQPAQL
IFN-γ ELISpot response [1]: 0 SFU
IFN-γ ELISpot response [2]: 1 SFU
IFN-γ ELISpot response [3]: 2 SFU
Significant response as percentage of maximal peptide SFU (patient II, max peptide 15 SFU): + (>70% = +)
Significant response as percentage of maximal peptide SFU (patient K, max peptide 53 SFU): ′′ (21-40% = ′′)
IFN-γ ELISpot response [4]: 7 SFU
IFN-γ ELISpot response [5]: 0 SFU
IFN-γ ELISpot response [6]: 4 SFU
IFN-γ ELISpot response [7]: 5 SFU
IFN-γ ELISpot response [8]: 2 SFU
IFN-γ ELISpot response [9]: 1 SFU
IFN-γ ELISpot response [10]: 0 SFU
IFN-γ ELISpot response [11]: 3 SFU
IFN-γ ELISpot response [12]: 5 SFU
IFN-γ ELISpot response [13]: 3 SFU
IFN-γ ELISpot response [14]: 0 SFU

GLERPWQEQPLPPQ
IFN-γ ELISpot response (patient A, 11-17 yrs, cut-off 10 SFU): 4 SFU
IFN-γ ELISpot response (patient E, H, 11-17 yrs, cut-off 10 SFU): 0 SFU
IFN-γ ELISpot response (patient F, 11-17 yrs, cut-off 10 SFU): 0 SFU
IFN-γ ELISpot response [1]: 0 SFU
IFN-γ ELISpot response (patient H (HLA-DQ2.5 homozygote), 3-5yrs, cut-off 10 SFU): 0 SFU
IFN-γ ELISpot response [2]: 16 SFU
Significant response as percentage of maximal peptide SFU (patient H, max peptide 17 SFU): + (>70% = +)
IFN-γ ELISpot response [3]: 1 SFU
IFN-γ ELISpot response (patient N, 3-5yrs, cut-off 10 SFU): 0 SFU
IFN-γ ELISpot response [4]: 7 SFU
IFN-γ ELISpot response [5]: 22 SFU
Significant response as percentage of maximal peptide SFU (patient Q, max peptide 97 SFU): ′′ (21-40% = ′′)
IFN-γ ELISpot response [6]: 1 SFU
IFN-γ ELISpot response [7]: 7 SFU
IFN-γ ELISpot response [8]: 9 SFU
IFN-γ ELISpot response [9]: 1 SFU
IFN-γ ELISpot response [10]: 6 SFU
IFN-γ ELISpot response [11]: 11 SFU
Significant response as percentage of maximal peptide SFU (patient seven, max peptide 27 SFU): ′′′ (41-70% = ′′′)
IFN-γ ELISpot response [12]: 5 SFU
IFN-γ ELISpot response [13]: 3 SFU
IFN-γ ELISpot response (patient twelve, 11-17 yrs, cut-off 10 SFU): 2 SFU
IFN-γ ELISpot response [14]: 1 SFU
